The source of these data is US20130029381A1, “MICROORGANISMS FOR THE PRODUCTION OF 1,4-BUTANEDIOL, 4-HYDROXYBUTANAL, 4-HYDROXYBUTYRYL-COA, PUTRESCINE AND RELATED COMPOUNDS, AND METHODS RELATED THERETO” (GENOMATICA, INC., priority 2009, published 2013).

Sequence of homoserine kinase (P00547 whole entry): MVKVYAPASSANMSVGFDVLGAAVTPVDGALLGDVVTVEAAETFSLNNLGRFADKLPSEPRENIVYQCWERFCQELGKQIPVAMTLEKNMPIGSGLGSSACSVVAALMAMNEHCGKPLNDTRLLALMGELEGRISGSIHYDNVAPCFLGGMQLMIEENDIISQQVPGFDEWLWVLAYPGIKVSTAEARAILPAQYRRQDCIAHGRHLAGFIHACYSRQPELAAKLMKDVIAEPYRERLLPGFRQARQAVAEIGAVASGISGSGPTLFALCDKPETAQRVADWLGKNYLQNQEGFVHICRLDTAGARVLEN

For one data set, the system named is CCCC=O. Description: ADH enzyme assay of Adh1 (084), Km for aldehyde substrates. In kind it is biochemical, Geobacillus thermoglucosidasius. As to conditions: other: reductive ADH assay, enzyme expressed in E. coli; pH 7.5. The text has this:
(§1) The Adh1 enzyme (084) expressed very well from its native gene in E. coli (see FIG. 32A).
For the compound “Adh1 enzyme (084) (Geobacillus sp. M10EXG)”, the Km came out at 1.2 mM.

For another data set, the system named is O=CCCCO. Described as above. In kind it is biochemical, Geobacillus thermoglucosidasius. The note with it: other: reductive ADH assay, enzyme expressed in E. coli; pH 7.5.
Source text: as §1
In the case of “Adh1 enzyme (084) (Geobacillus sp. M10EXG)”, the Km stood at 4.0 mM.

The next data set deals with T1, L(+)-lactate dehydrogenase from A. eutrophus (Cupriavidus necator, UniProt Q07251).
T1 sequence (Q07251 1-349): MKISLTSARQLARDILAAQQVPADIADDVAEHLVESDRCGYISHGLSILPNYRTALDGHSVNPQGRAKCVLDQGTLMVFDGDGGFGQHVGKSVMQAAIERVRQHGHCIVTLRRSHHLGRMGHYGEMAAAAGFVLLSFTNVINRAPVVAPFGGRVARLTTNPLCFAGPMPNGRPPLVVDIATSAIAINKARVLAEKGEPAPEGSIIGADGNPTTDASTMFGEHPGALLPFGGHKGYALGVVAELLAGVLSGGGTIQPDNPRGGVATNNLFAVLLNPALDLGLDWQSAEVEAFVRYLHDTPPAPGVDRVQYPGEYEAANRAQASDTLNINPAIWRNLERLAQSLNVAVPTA
Assay: not given
As to conditions: compared with that on pyruvate; cited from earlier work.
On to `O=C(O)CCC(=O)C(=O)O` [2-Oxoglutarate], for which the “Activity (%) of L(+)-lactate dehydrogenase from A. eutrophus” value (“Activity (%) … from A. eutrophus” below) is reported as 79.6%.
For the compound `CC(C)C(=O)C(=O)O` [3-Methyl-2-oxobutyrate], the “Activity (%) … from A. eutrophus” value is on record as 28.5%.
On to `O=C(O)C(=O)CF` [3-Fluoropyruvate], for which the “Activity (%) … from A. eutrophus” value is listed as 33.6%.
As for `CCCC(=O)C(=O)O` [2-Oxovalerate], the “Activity (%) … from A. eutrophus” value was 125.0%.
Turning to `CCC(=O)C(=O)O` [2-Oxobutyrate], the “Activity (%) … from A. eutrophus” value was 107.0%.

The next data set addresses T2, L(+)-lactate dehydrogenase from rabbit muscle (Oryctolagus cuniculus, UniProt P13491).
T2 construct: rabbit muscle; host or cells: rabbit muscle
Assay: not given
The note with it: compared with that on pyruvate; cited from earlier work.
In the case of `O=CC(=O)O` [Glyoxylate], the “Activity (%) of L(+)-lactate dehydrogenase from rabbit muscle” value was 23.9%.

A further data set addresses homoserine kinase (Escherichia coli, UniProt P00547).
Assay: not given
As to conditions: cited from earlier work.
Take `N[C@@H](CCO)C(=O)O` [L-homoserine]: the Michaelis constant (Km) is 0.14 ± 0.04 mM.
For `N[C@H](CO)CCO` [L-2-amino-1,4-butanediol], the Michaelis-Menten constant (Km) was 11.6 ± 6.5 mM.
In the case of `CCOC(=O)[C@@H](N)CCO` [L-homoserine ethyl ester], the Michaelis-Menten constant (Km) is 1.9 ± 0.5 mM.
As for `CC(C)COC(=O)[C@@H](N)CCO` [L-homoserine isobutyl ester], the Michaelis-Menten constant (Km) was 6.9 ± 1.1 mM.
As to `CC(C)OC(=O)[C@@H](N)CCO` [L-homoserine isopropyl ester], the Km was 1.2 ± 0.5 mM.
As for `N[C@H](CCO)C(=O)O` [D-homoserine], the Michaelis-Menten constant (Km) is 31.8 ± 7.2 mM.
Turning to `COC(=O)[C@@H](N)CCO` [L-homoserine methyl ester], the Km is 4.9 ± 2 mM.
`CCCOC(=O)[C@@H](N)CCO` [L-homoserine n-propyl ester]: the Km is 3.5 ± 0.4 mM.
